Source: ChEMBL document CHEMBL1201862, “PubChem BioAssay data set” (2004)
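Five concentrations, 48 hours, 96-well plates. GI50 marks 50% less growth.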 Activity calls are given as the source filed them. Cut-off read from the data, not from the text of the source: active = GI50 up to about 1.1 µM and inactive = higher.

Legend:
Assay in all cases: NCI anticancer screen, dose series, 48 h
786-0 = test system: 786-0
ACHN = test system: ACHN
CAKI-1 = test system: CAKI-1
COLO 205 = test system: COLO 205
DU-145 = test system: DU-145
HOP-92 = test system: HOP-92
Hs-578T = test system: Hs-578T
IGROV-1 = test system: IGROV-1
K562 = test system: K562
MCF7 = test system: MCF7
MDA-MB-231 = test system: MDA-MB-231
MDA-MB-435 = test system: MDA-MB-435
MOLT-4 = test system: MOLT-4
Malme-3M = test system: Malme-3M
NCI-H460 = test system: NCI-H460
OVCAR-8 = test system: OVCAR-8
SF-268 = test system: SF-268
SK-MEL-2 = test system: SK-MEL-2
T47D = test system: T47D
TK-10 = test system: TK-10

Measured: GI50

CC(C)=CCC[C@@H](C)C1=C(O)C(=O)C(C)=C(Nc2ccccc2Cl)C1=O
inactive: 786-0 12.9 µM | ACHN 19.1 µM | CAKI-1 16 µM | COLO 205 14.2 µM | DU-145 36.2 µM | HOP-92 27.8 µM | Hs-578T 21.7 µM | IGROV-1 5.81 µM | K562 36 µM | MCF7 24.4 µM | MDA-MB-231 40.4 µM | MDA-MB-435 23.9 µM | MOLT-4 5 µM | Malme-3M 11.3 µM | NCI-H460 14.1 µM | OVCAR-8 4.71 µM | SF-268 16 µM | SK-MEL-2 15.5 µM | T47D 12.6 µM | TK-10 33.7 µM

COc1ccccc1NC(=O)C(C#N)=C(SC)SC
inactive: 786-0 > 100 µM | ACHN > 100 µM | CAKI-1 61 µM | COLO 205 > 100 µM | DU-145 > 100 µM | HOP-92 32.3 µM | Hs-578T > 100 µM | IGROV-1 51.9 µM | K562 > 100 µM | MCF7 > 100 µM | MDA-MB-231 > 100 µM | MDA-MB-435 > 100 µM | MOLT-4 > 100 µM | Malme-3M > 100 µM | NCI-H460 94.2 µM | SF-268 > 100 µM | SK-MEL-2 > 100 µM | T47D 30.2 µM | TK-10 > 100 µM

COC(=O)[C@@]1(C)CCC[C@]2(C(=O)O)C3Cc4occc4[C@H](C)[C@@H]3CCC21 (stereo partly drawn)
inactive: 786-0 73.1 µM | ACHN 44.2 µM | DU-145 44.2 µM | HOP-92 29.4 µM | Hs-578T 29.4 µM | IGROV-1 44.6 µM | K562 29.2 µM | MCF7 > 10 µM | MDA-MB-231 > 100 µM | MDA-MB-435 80.5 µM | MOLT-4 29.2 µM | Malme-3M 34.5 µM | NCI-H460 33.8 µM | OVCAR-8 68.1 µM | SF-268 > 100 µM | SK-MEL-2 51.2 µM | T47D 40.6 µM | TK-10 41 µM

CC(C)COP(C)(=O)C(N)(C(F)(F)F)C(F)(F)F (stereo not drawn)
inactive: 786-0 > 100 µM | ACHN > 100 µM | CAKI-1 > 100 µM | COLO 205 > 100 µM | DU-145 > 100 µM | HOP-92 > 100 µM | Hs-578T > 100 µM | IGROV-1 > 100 µM | K562 > 100 µM | MCF7 > 100 µM | MDA-MB-231 > 100 µM | MDA-MB-435 > 100 µM | MOLT-4 > 100 µM | Malme-3M > 100 µM | OVCAR-8 > 100 µM | SF-268 > 100 µM | SK-MEL-2 > 100 µM | T47D > 100 µM | TK-10 > 100 µM

COc1ccc(NC(=O)CC(=O)N2N=C(C)C(/N=N/c3ccc(C(=O)O)cc3)C2=O)cc1 (stereo not drawn)
inactive: 786-0 > 100 µM | ACHN > 100 µM | CAKI-1 > 100 µM | COLO 205 > 100 µM | DU-145 > 100 µM | HOP-92 > 100 µM | Hs-578T > 100 µM | IGROV-1 > 100 µM | K562 > 100 µM | MCF7 > 100 µM | MDA-MB-231 > 100 µM | MDA-MB-435 > 100 µM | Malme-3M > 100 µM | NCI-H460 > 100 µM | OVCAR-8 > 100 µM | SF-268 > 100 µM | SK-MEL-2 > 100 µM | T47D > 100 µM | TK-10 > 100 µM

CCOc1cnc(C(O)(c2ccccc2)c2ccccc2)o1
inactive: 786-0 > 100 µM | ACHN > 100 µM | CAKI-1 > 100 µM | COLO 205 > 100 µM | DU-145 > 100 µM | HOP-92 58.9 µM | Hs-578T > 100 µM | IGROV-1 > 100 µM | K562 > 100 µM | MCF7 > 100 µM | MDA-MB-231 > 100 µM | MDA-MB-435 > 100 µM | MOLT-4 > 100 µM | Malme-3M > 100 µM | NCI-H460 > 100 µM | OVCAR-8 > 100 µM | SF-268 > 100 µM | SK-MEL-2 > 100 µM | T47D > 100 µM

O=C(c1ccc(Cl)cc1Cl)N(Cc1cccnc1)C(=S)N(Cc1cccnc1)C(=O)c1ccc(Cl)cc1Cl
inactive: 786-0 2.12 µM | ACHN 9.62 µM | CAKI-1 11.6 µM | COLO 205 2.08 µM | DU-145 3.39 µM | HOP-92 3.83 µM | Hs-578T 21 µM | K562 3.52 µM | MCF7 2.58 µM | MDA-MB-231 2.75 µM | MDA-MB-435 17.7 µM | MOLT-4 4.06 µM | Malme-3M 16.4 µM | NCI-H460 15.5 µM | OVCAR-8 3.35 µM | SF-268 4.68 µM | SK-MEL-2 3.58 µM | T47D 11.4 µM | TK-10 3.77 µM
